Measured values from patent publication US9976170B2, “Method for evaluating bacterial cell wall integrity” (UNIVERSIDAD AUTONOMA DE MADRID, priority 2011, dated 2018).
≈ marks a conversion by molar mass, not a printed value. Read-outs that look alike come from different tables or passages of the source.

Columns and labels:
Type in all cases: cell-based
[1] = tested on: Enterococcus faecium, ampicillin- and benzylpenicillin-resistant strain; assay: technique for evaluating cell wall integrity (lysis solution, nucleoid release, fluorescence microscopy); conditions: 320 μg/mL, 60 minutes
Description: (§1) Different bacterial strains grown on a dish with Mueller-Hinton medium for 24 hours were subsequently exposed to a β-lactam antibiotic for 60 minutes in Mueller-Hinton liquid medium at 37° C., under stirring, and were finally processed by means of the technique for evaluating cell wall integrity according to the present invention.
(§2) The doses of antibiotic applied were 0, the MIC determined in the Microbiology Laboratory by means of the microdilution and/or E-test technique, and those of the cutoff points of sensitivity and resistance indicated by the Clinical and Laboratory Standards Institute (CLSI) for each strain. A dose 10 times higher than the MIC was also used.

[2] = tested on: Enterococcus faecalis, ampicillin-sensitive and benzylpenicillin-resistant strain; assay: as above; conditions: 60 minutes
Description: as §1, §2

[3] = tested on: Enterococcus faecium, ampicillin- and benzylpenicillin-resistant strain; assay: MIC by microdilution and/or E-test
Excerpt: (§3) The strains and the antibiotics used were: • Gram+ • Enterococcus faecalis.
as §2

[4] = tested on: Enterococcus faecalis, ampicillin-sensitive and benzylpenicillin-resistant strain; assay: MIC by microdilution and/or E-test
Excerpt: as §3, §2

[5] = tested on: Acinetobacter baumannii, imipenem- and ceftazidime-resistant strain; assay: technique for evaluating cell wall integrity (lysis solution, nucleoid release, fluorescence microscopy); conditions: 60 minutes
Description: as §1, §2

[6] = tested on: Acinetobacter baumannii, imipenem-sensitive strain with intermediate sensitivity to ceftazidime; assay: as above; conditions: 60 minutes
Description: as §1, §2

[7] = tested on: Acinetobacter baumannii, imipenem- and ceftazidime-resistant strain; assay: MIC by microdilution and/or E-test
Excerpt: as §3, §2

[8] = tested on: Acinetobacter baumannii, imipenem-sensitive strain with intermediate sensitivity to ceftazidime; assay: MIC by microdilution and/or E-test
Excerpt: as §3, §2

[9] = tested on: 11 different strains of E. coli isolated in a Microbiology Service; assay: technique for evaluating cell wall integrity on hospital isolates; conditions: of 11 strains, 1 hour
Description: Following the results of the preceding experiment (Example 1), 11 different strains of E. coli isolated in a Microbiology Service were studied. After growing on a dish with Mueller-Hinton medium for 24 hours, they were exposed to amoxicilin together with clavulanic acid in Mueller-Hinton liquid medium for 1 hour, after which they were processed by means of the technique for evaluating cell wall integrity according to the present invention.

[10] = tested on: strain of Escherichia coli with intermediate sensitivity; assay: technique for evaluating cell wall integrity, Examples 1 and 3; conditions: for incubation time at which a clear effect started to show: only after high dose (32/16)
Excerpt: (§4) Three different strains of Escherichia coli were exposed to the β-lactam antibiotic, amoxicilin, together with the β-lactamase inhibitor, clavulanic acid, and processed by means of the technique for evaluating cell wall integrity of the present invention. […] The doses of antibiotic were chosen according to the cutoff points indicated by the Clinical and Laboratory Standards Institute (CLSI). […] According to the disc diffusion data, one of the strains is a sensitive strain, another strain is a strain with intermediate sensitivity and the remaining strain is a resistant strain.
(§5) A sensitive strain, a strain with intermediate sensitivity and another resistant strain of E. coli were exposed to amoxicilin together with clavulanic acid in Mueller-Hinton liquid medium and processed by means of the technique for evaluating cell wall integrity of the present invention. […] The incubation times with the antibiotic were 5, 10, 20, 30, 40, 60 and 75 minutes.

[11] = tested on: sensitive strain of Escherichia coli; assay: as above; conditions: for lysis of the bacteria, showing the nucleoids: exponential liquid culture
Excerpt: as §4, §5

[12] = tested on: resistant strain of Escherichia coli; assay: as above
Excerpt: as §4, §5

[13] = tested on: sensitive strain of E. coli; assay: background of extracellular DNA fragments, processed without the step of lysis (FIG. 8); conditions: 40 minutes, after 24 hours on a dish
Description: The strains were processed without the step of lysis by exposure to the lysis solution.
The liquid with the cells is included in an agarose microgel which is dehydrated in alcohols and/or air dried or dried in an oven and stained with fluorochrome. It is the same process described in detail above, but without incubation with lysis solution. The background can be evaluated rapidly after 15-20 minutes that it takes to perform the technique. The preparations are permanent.

[14] = tested on: amoxicilin/clavulanic acid-sensitive E. coli strain
Description: The liquid with the cells is included in an agarose microgel which is dehydrated in alcohols and/or air dried or dried in an oven and stained with fluorochrome. It is the same process described in detail above, but without incubation with lysis solution.

[15] = dose 32/16, 40 minutes, exponential liquid culture
[16] = low dose (8/4), bacteria from 24-hour dish culture
[17] = 32/16, 15 minutes of incubation

CC1(C)S[C@@H]2[C@H](NC(=O)Cc3ccccc3)C(=O)N2[C@H]1C(=O)O [benzylpenicillin]
background of extracellular DNA fragments [1]: no background
heavily lysed cells [1]: 5%
background of extracellular DNA fragments ([2]; 16 μg/mL): some background
cells not lysed ([2]; 16 μg/mL): 81%
lysed cells with a large halo ([2]; 16 μg/mL): 4.5%
cells lysed with nucleoid with fragmented DNA ([2]; 32 μg/mL): 4%
cells not lysed ([2]; 32 μg/mL): 65%
cells with a large halo ([2]; 32 μg/mL): 4%
cells with a small halo ([2]; 320 μg/mL): 25%
non-lysed cells ([2]; 320 μg/mL): 72.3%
empty faint capsules ([2]; 16, 32 and 320 μg/mL): 0.5-1.5%
MIC [3]: > 32 µg/mL
MIC [4]: > 32 µg/mL

C[C@@H](O)[C@H]1C(=O)N2C(C(=O)O)=C(SCCN=CN)C[C@H]12 [imipenem]
cells with a large halo ([5]; 16 μg/mL): 1%
cells with a small halo ([5]; 16 μg/mL): 1%
lysed cells with nucleoid with fragmented DNA ([5]; 16 μg/mL): 0.5%
cells not lysed ([5]; 320 μg/mL): 92%
heavily lysed cells ([5]; 320 μg/mL): 3.5%
lysed cells with a small halo ([5]; 320 μg/mL): 2.5%
lysed cells with nucleoid with fragmented DNA ([5]; 320 μg/mL): 2%
cells with a large halo ([6]; 4 μg/mL): 13.5%
faint empty capsules ([6]; 4 μg/mL): 12%
lysed cells with nucleoid with fragmented DNA ([6]; 4 μg/mL): 66%
non-lysed cells ([6]; 4 μg/mL): 8.5%
cells with a large halo ([6]; 8 μg/mL): 6%
faint empty capsules ([6]; 8 μg/mL): 19.5%
lysed cells with nucleoid with fragmented DNA ([6]; 8 μg/mL): 69.5%
non-lysed cells ([6]; 8 μg/mL): 5%
cells with a large halo ([6]; 16 μg/mL): 5%
faint empty capsules ([6]; 16 μg/mL): 15%
lysed cells with nucleoid with fragmented DNA ([6]; 16 μg/mL): 73.5%
non-lysed cells ([6]; 16 μg/mL): 6.5%
MIC [7]: > 32 µg/mL
MIC [8]: 0.38 µg/mL (≈ 1.27 µM)

amoxicilin/clavulanic acid
strains with complete wall lysis and intense background even at low dose (8/4), categorized as sensitive [9]: Three
strains with complete wall lysis and intense background only at high dose (32/16), intermediate sensitivity [9]: 5
strains with non-lysed and moderately lysed cells, very faint or no background at high dose, categorized as resistant [9]: Two
lysis of the bacteria, showing the nucleoids [10, 15]: lysed
incubation time at which a clear effect started to show ([10]; bacteria from 24-hour dish culture): 60 min
incubation time at which a clear effect started to show ([10]; liquid culture in exponential growth phase): 30 to 40 min
lysis of the bacteria, showing the nucleoids ([11]; dose 8/4 (8 μg/mL amoxicilin, 4 μg/mL clavulanic acid), 40 minutes): lysed
lysis of the bacteria, showing the nucleoids ([11]; dose 32/16, 40 minutes): lysed
incubation time after which an effect (background, subtle cell lysis) started to be seen ([11]; high dose (32/16), bacteria from 24-hour dish culture): 20 min
incubation time after which an effect started to be observed ([11]; low (8/4) and high (32/16) dose, liquid culture in exponential growth phase): 10 min
incubation time after which the subtle effect was observed [11, 16]: 40 min
incubation time at which the effect became maximum (lysis of virtually all cells) [11, 16]: 60 min
effect on the wall ([12]; 8/4 and 32/16, liquid culture in exponential growth phase): did not show any effect at all
effect on the wall ([12]; 8/4 and 32/16, up to 75 minutes, bacteria from 24-hour dish culture): did not show any effect at all
lysis of the bacteria, showing the nucleoids [12, 15]: not lysed
background of extracellular DNA fragments, without lysis ([13]; high dose (32/16)): increases significantly
background of extracellular DNA fragments, without lysis ([13]; low dose (8/4)): evident
background of extracellular DNA fragments, without lysis [14, 17]: very clear background
cells per mL, measured by Neubauer chamber [14, 17]: 42.5 million of cells per mL
OD 600 ([14]; 32/16, 15 minutes of incubation, starting OD 600 0.07): 0.071
OD 600 ([14]; 32/16, 2 hours of incubation): 0.033
cells per mL ([14]; 32/16, 2 hours of incubation): 14.5 million of cells per mL
OD 600 ([14]; 32/16, 3 hours): 0.037
OD 600 ([14]; 32/16, 4 hours): 0.033
OD 600 ([14]; 32/16, 6 hours): 0.035
cells per mL ([14]; 32/16, 6 hours): 13.5 million of cells per mL
background of extracellular DNA fragments, without lysis ([14]; 32/16, after 3 and 4 hours): poor
background of extracellular DNA fragments, without lysis ([14]; 32/16, after 6 hours): no longer observed
cells per mL ([14]; 32/16, at both 3 and 4 hours): 14 million of cells per mL
background of extracellular DNA fragments, without lysis ([14]; 32/16, up to 2 hours of incubation): remains intense
